{"source": "ChEMBL document CHEMBL1201862", "about": "“PubChem BioAssay data set” (2004)", "target": "Envelope glycoprotein gp160 (Human immunodeficiency virus 1, UniProt Q6QLK5)", "sequence (Q6QLK5 whole entry, the tested form may be a part)": "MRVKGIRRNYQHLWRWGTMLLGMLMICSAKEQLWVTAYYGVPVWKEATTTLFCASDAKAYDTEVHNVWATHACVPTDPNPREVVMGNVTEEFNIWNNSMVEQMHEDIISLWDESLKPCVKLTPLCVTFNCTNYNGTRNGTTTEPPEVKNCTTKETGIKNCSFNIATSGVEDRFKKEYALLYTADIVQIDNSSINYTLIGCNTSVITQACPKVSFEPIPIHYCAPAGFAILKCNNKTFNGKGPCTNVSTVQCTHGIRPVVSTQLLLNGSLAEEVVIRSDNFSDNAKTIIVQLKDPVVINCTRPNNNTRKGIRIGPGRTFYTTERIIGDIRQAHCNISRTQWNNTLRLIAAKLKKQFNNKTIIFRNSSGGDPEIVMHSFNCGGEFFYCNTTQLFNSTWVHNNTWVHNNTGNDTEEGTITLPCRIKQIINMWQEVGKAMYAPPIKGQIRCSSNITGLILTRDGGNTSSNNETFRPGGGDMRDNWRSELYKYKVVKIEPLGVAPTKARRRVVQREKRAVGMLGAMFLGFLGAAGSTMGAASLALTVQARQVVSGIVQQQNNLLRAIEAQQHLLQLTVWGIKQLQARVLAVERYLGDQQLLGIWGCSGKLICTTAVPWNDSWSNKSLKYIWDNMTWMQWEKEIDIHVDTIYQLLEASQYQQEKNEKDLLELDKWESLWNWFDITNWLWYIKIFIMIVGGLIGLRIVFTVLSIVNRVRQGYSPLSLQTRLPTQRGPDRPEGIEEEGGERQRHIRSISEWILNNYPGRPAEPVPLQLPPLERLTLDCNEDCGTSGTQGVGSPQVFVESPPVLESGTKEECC", "assay": "cell-free HIV fusion peptide-binding blockers – biochemical, uHTS, fluorescence dequenching, […] (AID 1986)", "note": "The source made the active and inactive calls. Cut-off read from the data, not from the text of the source: actives have a measured IC50 and inactives only a lower limit."}
{"compound": "O=C(NN1C(=O)/C(=C/c2ccc(O)c([N+](=O)[O-])c2)SC1=S)c1ccccc1Cl", "values": [{"measurement": "IC50", "result": "28.2 µM (active)"}]}
{"compound": "CC(C)(C)CC(C)(C)c1ccc(OCC(=O)N/N=C/c2ccc(S(=O)(=O)O)o2)cc1", "values": [{"measurement": "IC50", "result": "27.8 µM (active)"}]}
